How the values were obtained:
[1] = system: B16F10; experiment: Venetoclax cell killing (CellTiter-Glo); assay type: cell-based, murine; conditions: Mus musculus, B16-F10, 72 h; Melanoma; 10% FBS; 3 days
Procedure: (§1) Solid tumor cell lines were obtained from American Type Culture Collection (ATCC, Manassas, Va.) or the National Cancer Institute (NCI) and cultured in humidified incubators at 37° C. (5% CO2) in appropriate media (specified by supplier) supplemented with 10% fetal bovine serum (FBS) or 10% human serum (HS). 24 hours after plating into 96-well or 384-well tissue culture plates, venetoclax was added to cells at various concentrations (typically 0.010 to 10 μM in half-log increments) to perform concentration-response assessments of cell killing. After 1 to 5 days of culture in the presence of venetoclax, cell viability was assessed using CellTiter-Glo® reagent (Promega). IC50 values were determined by non-linear regression analysis of the concentration response data (Table 5 and Table 6).

[2] = system: LL2; experiment: Venetoclax cell killing (CellTiter-Glo); assay type: cell-based, murine; conditions: Mus musculus, LL/2, 72 h; Lung Cancer; 10% FBS; 3 days
Procedure: as §1

[3] = system: MC38; experiment: Venetoclax cell killing (CellTiter-Glo); assay type: cell-based, murine; conditions: Mus musculus, MC-38, 72 h; Colorectal; 10% FBS; 3 days
Procedure: as §1

[4] = system: Renca; experiment: Venetoclax cell killing (CellTiter-Glo); assay type: cell-based, murine; conditions: Mus musculus, 72 h, Renal Adenocarcinoma, 10% FBS, 3 days
Procedure: as §1

[5] = system: MC38 tumors; experiment: MC38 model in immune deficient SCID mice; assay type: in vivo, mouse
Procedure: All experiments were conducted in compliance with the National Institutes of Health Guide for Care and Use of Laboratory Animals guidelines in a facility accredited by the Association for the Assessment and Accreditation of Laboratory Animal Care (AAALAC). BALB/c, C57BL/6, CB6F1 (C57BL/6 bred with BALB/c) and SCID mice were obtained from Charles River (Wilmington, Mass.). SCID mice have severe combined immune deficiency (SCID) and are characterized by an absence of functional T- and B-cells.
To further test the direct effects of venetoclax on the immune cells, SCID mice were transplanted with MC38 cells and treated with vehicle or anti-PD-1/PD-L1/venetoclax as single agent and in combinations (FIGS. 12E and 12F).

[6] = system: MDA-MB-231; experiment: Venetoclax cell killing (CellTiter-Glo); assay type: cell-based; conditions: Homo sapiens, MDA-MB-231, 72 h; Breast Cancer; 10% FBS; 3 days
Procedure: as §1

[7] = system: Hs 695T; experiment: Venetoclax cell killing (CellTiter-Glo); assay type: cell-based; conditions: Homo sapiens, 120 h, Melanoma, 10% FBS, 5 days
Procedure: as §1

[8] = system: NCI-H1963; experiment: Venetoclax cell killing (CellTiter-Glo); assay type: cell-based; conditions: Homo sapiens, NCI-H1963, 24 h; Lung; 10% FBS; 1 day
Procedure: as §1

[9] = system: NCI-H526; experiment: Venetoclax cell killing (CellTiter-Glo); assay type: cell-based; conditions: Homo sapiens, NCI-H526, 24 h; Lung; 10% FBS; 1 day
Procedure: as §1

[10] = system: NCI-H187; experiment: Venetoclax cell killing (CellTiter-Glo); assay type: cell-based; conditions: Homo sapiens, NCI-H187, 48 h; Lung; 10% HS; 2 days
Procedure: as §1

[11] = system: COLO-205; experiment: Venetoclax cell killing (CellTiter-Glo); assay type: cell-based; conditions: Homo sapiens, COLO 205, 120 h; Colorectal; 10% FBS; 5 days
Procedure: as §1

[12] = system: SW620; experiment: Venetoclax cell killing (CellTiter-Glo); assay type: cell-based; conditions: Homo sapiens, SW-620, 120 h; Colorectal; 10% FBS; 5 days
Procedure: as §1

[13] = system: SW480; experiment: Venetoclax cell killing (CellTiter-Glo); assay type: cell-based; conditions: Homo sapiens, SW480, 120 h; Colorectal; 10% FBS; 5 days
Procedure: as §1

[14] = system: NCI-H146; experiment: Venetoclax cell killing (CellTiter-Glo); assay type: cell-based; conditions: Homo sapiens, NCI-H146, 48 h; Lung; 10% HS; 2 days
Procedure: as §1

[15] = system: NCI-H1975; experiment: Venetoclax cell killing (CellTiter-Glo); assay type: cell-based; conditions: Homo sapiens, NCI-H1975, 72 h; Lung; 10% FBS; 3 days
Procedure: as §1

[16] = system: HT29; experiment: Venetoclax cell killing (CellTiter-Glo); assay type: cell-based; conditions: Homo sapiens, HT-29, 120 h; Colorectal; 10% FBS; 5 days
Procedure: as §1

[17] = system: NCI-H1299; experiment: Venetoclax cell killing (CellTiter-Glo); assay type: cell-based; conditions: Homo sapiens, NCI-H1299, 120 h; Lung; 10% FBS; 5 days
Procedure: as §1

[18] = system: NCI-H358; experiment: Venetoclax cell killing (CellTiter-Glo); assay type: cell-based; conditions: Homo sapiens, NCI-H358, 72 h; Lung; 10% FBS; 3 days
Procedure: as §1

[19] = system: LoVo; experiment: Venetoclax cell killing (CellTiter-Glo); assay type: cell-based; conditions: Homo sapiens, 120 h, Colorectal, 10% FBS, 5 days
Procedure: as §1

[20] = system: COLO-201; experiment: Venetoclax cell killing (CellTiter-Glo); assay type: cell-based; conditions: Homo sapiens, COLO 201, 120 h; Colorectal; 10% FBS; 5 days
Procedure: as §1

[21] = system: NCI-H69; experiment: Venetoclax cell killing (CellTiter-Glo); assay type: cell-based; conditions: Homo sapiens, NCI-H69, 24 h; Lung; 10% FBS; 1 day
Procedure: as §1

[22] = system: NCI-H209; experiment: Venetoclax cell killing (CellTiter-Glo); assay type: cell-based; conditions: Homo sapiens, NCI-H209, 24 h; Lung; 10% FBS; 1 day
Procedure: as §1

[23] = system: NCI-H441; experiment: Venetoclax cell killing (CellTiter-Glo); assay type: cell-based; conditions: Homo sapiens, NCI-H441, 72 h; Lung; 10% FBS; 3 days
Procedure: as §1

[24] = system: NCI-H2009; experiment: Venetoclax cell killing (CellTiter-Glo); assay type: cell-based; conditions: Homo sapiens, NCI-H2009, 72 h; Lung; 10% FBS; 3 days
Procedure: as §1

[25] = system: NCI-H524; experiment: Venetoclax cell killing (CellTiter-Glo); assay type: cell-based; conditions: Homo sapiens, NCI-H524, 24 h; Lung; 10% FBS; 1 day
Procedure: as §1

[26] = system: FaDu; experiment: Venetoclax cell killing (CellTiter-Glo); assay type: cell-based; conditions: Homo sapiens, 120 h, Hypopharyngeal, 10% FBS, 5 days
Procedure: as §1

[27] = system: NCI-H510A; experiment: Venetoclax cell killing (CellTiter-Glo); assay type: cell-based; conditions: Homo sapiens, 24 h, Lung, 10% FBS, 1 day
Procedure: as §1

Compound: CC1(C)CCC(CN2CCN(c3ccc(C(=O)NS(=O)(=O)c4ccc(NCC5CCOCC5)c([N+](=O)[O-])c4)c(Oc4cnc5[nH]ccc5c4)c3)CC2)=C(c2ccc(Cl)cc2)C1 [Compound (I), venetoclax]
- IC50 [1]: > 10 µM
- IC50 [2]: > 10 µM
- IC50 [3]: ~10 µM
- IC50 [4]: > 10 µM
- anti-tumor efficacy / tumor growth in SCID mice [5]: did not show anti-tumor efficacy
- IC50 [6]: 4.83 µM
- IC50 [7]: > 10 µM
- IC50 [8]: 4.59 µM
- IC50 [9]: > 10 µM
- IC50 [10]: 3.04 µM
- IC50 [11]: > 10 µM
- IC50 [12]: > 10 µM
- IC50 [13]: > 10 µM
- IC50 [14]: 4.2 µM
- IC50 [15]: > 10 µM
- IC50 [16]: > 10 µM
- IC50 [17]: > 10 µM
- IC50 [18]: > 10 µM
- IC50 [19]: > 10 µM
- IC50 [20]: 9.78 µM
- IC50 [21]: > 10 µM
- IC50 [22]: > 10 µM
- IC50 [23]: > 10 µM
- IC50 [24]: 4.11 µM
- IC50 [25]: > 10 µM
- IC50 [26]: > 10 µM
- IC50 [27]: 1.97 µM

Source: patent US20190336496A1, “SELECTIVE BCL-2 INHIBITORS IN COMBINATION WITH AN ANTI-PD-1 OR AN ANTI-PD-L1 ANTIBODY FOR THE TREATMENT OF CANCERS” (AbbVie Inc., priority 2018, published 2019)
